Data taken from patent US20230146870A1, “METHOD TO QUANTIFY AFFINITY AND SELECTIVITY OF SMALL MOLECULES FOR PROTEINS IN LIVING CELLS” (Ohio State Innovation Foundation, priority 2021, published 2023).
Several values for one entry are separate records, joined by “and”; a condition that tells them apart may be missing. Identical values can stand only once. Like-named read-outs stand apart in the source and are kept apart here.

What was measured:
[1] = tested on: cellular microtubules (HeLa cells); test: Pilot screen of NCI Diversity Set VI: inhibition of binding of PB-GABA-Taxol, with dose-response validation
[2] = tested on: microtubule network of HeLa cells (mScarlet-α-Tubulin); test: Confocal microscopy of HeLa cells transfected with mScarlet-α-Tubulin; assay type: cell-based; settings: 1 h at 37° C.
Method: (FIG. 28C) Characterization of fluorescent microtubule phenotypes in HeLa cells transiently transfected with mScarlet-a-Tubulin and treated with the microtubule modulators (1 h at 37° C.). […] Scale bars=10 μm.
Cells were washed with PBS before treatment with PB-GABA-Taxol (100 nM) and (±)-verapamil hydrochloride (100 μM), with or without paclitaxel (10 μM) as a competitor, in phenol red-free DMEM supplemented with 10% FBS. Cells were incubated at 37° C. for 3 h prior to imaging by confocal microscopy. For experiments using HeLa cells transfected with mScarlet-α-tubulin, transient transfection was performed using a Invitrogen Lipofectamine 3000 Transfection kit (Thermo, L3000-075). Transfection used a 1× dose of lipid in OptiMEM (4% FBS) for 18 hours before washing of cells with PBS and treatment with the microtubule modulator for 1 h at 37° C.

[3] = tested on: microtubules in living HeLa cells; test: Allosteric modulator assay with PB-GABA-Taxol in living HeLa cells (cellular Kb, α); settings: PB-GABA-Taxol 1.5 μM, verapamil 100 μM, 3 h, 37° C.
Text: In this model, two compounds that engage tubulin at different binding sites influence the binding of each other through cooperativity. […] Smaller cooperativity factors (α) represent stronger effects on binding of the orthosteric probe. For these allosteric modulators, the apparent cellular affinity was defined as Kb, and the mathematical relationship between Kb and α is provided (equation 3).
The experimental method for allosteric binding assays was identical to the competition binding assays described previously. However, because it is inaccurate to describe an allosteric modulator with a competitive inhibitory constant (Ki), we used an allosteric modulator model (Kb) for data analysis. […] The observed occupancy of the orthosteric ligand is defined as KApp and is determined by the equilibrium dissociation constant of the orthosteric ligand (Kd), the concentration of allosteric ligand, its affinity for the receptor (Kb), and the strength by which the allosteric ligand affects receptor binding to the orthosteric ligand as defined by the cooperativity factor (a).

[4] = tested on: T1, microtubules in living HeLa cells; test: Saturation binding of PB-GABA-Taxol in living HeLa cells by flow cytometry
T1 construct: rows headed: PB-GABA-Taxol molecules/cell at saturation; other: calibration beads, flow cytometry; other: HeLa cell volume 4.5; cellular Kd of PB-GABA-Taxol for microtubules; other: HeLa cells, 4% FBS, 37° C., verapamil 100 μM, 3 h; other: 10% FBS vs
Method: To quantify the affinity of PB-GABA-Taxol for microtubules in living cells (cellular Kd), we developed the saturation binding method shown in FIG. 3. In this assay the cellular Kd was measured by varying the concentration of the fluorescent probe added to cells at equilibrium as established by kinetic assays of probe uptake. Total binding of this probe to specific and non-specific sites in cells in the presence of the efflux inhibitor verapamil was determined by flow cytometry. Non-specific binding was quantified separately by addition of excess paclitaxel with the probe under the same conditions. Subtraction of the linear non-specific binding contribution from the total binding curve was used analyze specific binding of the probe to tubulin of microtubules. […]
OptiMEM medium containing 4% FBS was prepared as 2× stock solutions of different concentrations of PB-GABA-Taxol by serial dilution (final [DMSO]=1.2%). […] The percentage of non-specific binding was determined as non-specific binding divided by total binding. The signal window (SW) was calculated as previously described^2: SW=[(mean top (maximum) signal−mean bottom (minimum) signal)−(3)*(SD top signal+SD bottom signal)]/(SD top signal), where SD=standard deviation.

HeLa cells [5] = test: Time to equilibrium / cellular uptake of PB-GABA-Taxol by flow cytometry; settings: probe 1.5 μM
Method: Tubes were incubated in a plate shaker, and at each time point 150 pL of cells were analyzed, in triplicate, in wells containing propidium iodide (3 μM final concentration) to identify live cells by flow cytometry. Median pacific blue fluorescence was plotted as a function of time and half-time measurements were determined using an Exponential One-phase association model (GraphPad Prism 9).

[6] = target: crosslinked / purified microtubules; settings: previously reported; read-out: biochemical Kd for microtubules; cited from earlier work
HeLa cells [7] = test: Cellular viability of trypsinized HeLa cells under binding assay conditions; assay type: cell-based; settings: 180 min
Method: Samples contained PB-GABA-Taxol (1.5 μM) unless otherwise noted. Viability was analyzed by flow cytometry at the time points shown. Dead cells were identified by changes in light scattering and staining with propidium iodide (3 μM). Changes in viability were less than 10% at 180 min under the conditions used for saturation binding and competitive binding assays, even in the presence of 100 μM paclitaxel.
For saturation binding assays, HeLa cells were incubated with PB-GABA-Taxol at 37° C. for 180 min in the presence of verapamil (100 μM).

[8] = Cytotoxicity assay, 48 h, flow cytometry; assay type: cell-based; settings: human, HeLa cells
Method: Trypsinized HeLa cells were resuspended at 40,000 cells/mL in DMEM medium containing 10% FBS and seeded at 8,000 cells/200 μL/well in a treated 96-well plate. The cells were incubated for 16 h at 37° C. The medium was removed and DMEM medium containing 10% FBS treated with compounds (prepared as 3-fold serial dilutions, 0.1% DMSO content) was added. Cells were treated for 48 h at 37° C. before removal of treated medium, washing cells with PBS (100 μL), and addition of Trypsin-EDTA (50 μL) for 10 min at 37° C. Trypsin was neutralized and cells resuspended by addition of 100 μL of complete medium treated with propidium iodide (final concentration 3 μM). Cellular viabilities were analyzed by gating of cells that lack fluorescence of propidium iodide by flow cytometry.

murine PKCβI-mVenus = target: T2, murine PKCβI-mVenus (Mus musculus, UniProt P68404); test: FPCBA saturation binding, HEK293 cells expressing PKCβI-mVenus (Example 3); settings: BIM1 2 μM, 2 h at 37° C., 4% FBS
T2 construct: fused on or other part: mVenus at the C-terminus
Text: (§1) To investigate the potential for quantitative analysis of binding to PKCs expressed in cells, we evaluated whether 1-3 could readily achieve equilibrium, which is necessary for measurements of cellular equilibrium dissociation constants (Kd).

[9] = tested on: HEK293 cells expressing PKCβI-mVenus; test: Kinetics of uptake of probes in HEK293 cells transiently transfected with PKCβI-mVenus; assay type: cell-based; settings: probe 1 μM, room temperature, BIM1 2 μM, 4% FBS
Method: Cells were treated with probes and analyzed by flow cytometry. […] [BIM1]=2 μM. [FBS]=4%.
as §1
The cells were re-suspended in fresh reduced serum media lacking antibiotics (4% FBS) at a cell density of ˜500,000 cells per mL and were added to a 96-well plate (100 μL per well). […] Fluorescent probes were prepared as absorbance-normalized 1 mM DMSO stock solutions and diluted into reduced serum DMEM media lacking antibiotics (4% FBS) to achieve a final concentration of the probe of 1 μM ([…]). [BIM1]=2 μM. After addition of probes, cells were analyzed at room temperature every 5 min as singletons. Living cells with the greatest green fluorescence from expression of mVenus (top 20%, transfected) and the lowest green fluorescence (bottom 20%, non-transfected) were gated to obtain median PB450 values of uptake of the fluorescent probes. For the slower kinetics of uptake of probe 3, cells were analyzed every 20 min in triplicate. These curves were fitted with a one-phase association model (GraphPad Prism 9) to determine t1/2 values.

PKCβI-mVenus = target: T3, PKCβI-mVenus (Mus musculus, UniProt P68404); test: Confocal microscopy of translocation of PKCβI-mVenus in HEK293 cells; assay type: cell-based; settings: 2 μM, 2 h
T3 construct: we generated expression vectors for eight full-length mouse isozymes; expressed in transfected cells; host or cells: HEK293 (ATCC CRL-1573), transient transfection with CMV-PKC betaI-mVenus-N1
Method: FIGS. 36A-36D provide confocal and DIC micrographs of living HEK293 cells transiently transfected to express PKCβI-mVenus. […] Scale bars=10 microns.
This IRES vector was derived from a previously reported^52 variant encoding the somewhat less fluorescent protein Venus.
Living cells cultured on an 8-well chamber glass slide (Ibidi μ-Slide, 300 μL, 100,000 cells/well) were imaged with an inverted Leica TCS SP8 confocal laser-scanning microscope (63× oil-immersion objective). Fluorescent probes were excited at 405 nm and mVenus was excited at 488 nm. Emitted photons were collected from 425-500 nm and 500-650 nm. For imaging, transiently transfected HEK293 cells in complete medium (10% FBS) were plated on the Ibidi μ-Slide for 16 h to promote adherence. Concentrated stock solutions of fluorescent probes in DMSO were serially diluted 500-fold in serum-free DMEM medium to afford 2× stock solutions (0.2% DMSO). Half of the cell culture medium (150 μL) was carefully removed by pipet and gently replaced with the 2× stock solution of the probe in serum-free medium (final [FBS]˜5%). Cells were treated with probes (2 μM) at 37° C. for 2 h before imaging by microscopy. Laser power and PMT gain settings were identical for all images and controls within a given experiment for accurate comparisons of cellular fluorescence.

[10] = target: PKC 11 (C1B domain, tyrosine at the 22 position); settings: phosphatidyl serine present, read-out: binding affinity (Kd) for DAG, cited from earlier work

T3 sequence (P68404 whole entry): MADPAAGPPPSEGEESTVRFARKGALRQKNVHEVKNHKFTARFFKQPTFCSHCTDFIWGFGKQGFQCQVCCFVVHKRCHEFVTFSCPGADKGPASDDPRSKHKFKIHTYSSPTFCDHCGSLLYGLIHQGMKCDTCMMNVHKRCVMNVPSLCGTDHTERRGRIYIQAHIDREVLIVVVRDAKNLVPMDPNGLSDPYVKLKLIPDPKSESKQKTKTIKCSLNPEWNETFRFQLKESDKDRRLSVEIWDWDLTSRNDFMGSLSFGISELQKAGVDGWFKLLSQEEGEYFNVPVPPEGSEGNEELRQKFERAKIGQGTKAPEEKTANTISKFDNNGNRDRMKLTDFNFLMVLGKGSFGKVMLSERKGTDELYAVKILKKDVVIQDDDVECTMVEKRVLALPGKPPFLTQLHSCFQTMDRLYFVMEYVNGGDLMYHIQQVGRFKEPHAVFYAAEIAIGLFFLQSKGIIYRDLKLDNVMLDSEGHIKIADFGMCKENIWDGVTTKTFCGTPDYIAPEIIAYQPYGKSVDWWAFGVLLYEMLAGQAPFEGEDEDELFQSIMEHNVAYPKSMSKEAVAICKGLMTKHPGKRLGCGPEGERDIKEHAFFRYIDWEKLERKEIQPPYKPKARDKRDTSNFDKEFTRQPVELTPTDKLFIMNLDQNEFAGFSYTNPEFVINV
T2 sequence (P68404 2-621 limits assumed): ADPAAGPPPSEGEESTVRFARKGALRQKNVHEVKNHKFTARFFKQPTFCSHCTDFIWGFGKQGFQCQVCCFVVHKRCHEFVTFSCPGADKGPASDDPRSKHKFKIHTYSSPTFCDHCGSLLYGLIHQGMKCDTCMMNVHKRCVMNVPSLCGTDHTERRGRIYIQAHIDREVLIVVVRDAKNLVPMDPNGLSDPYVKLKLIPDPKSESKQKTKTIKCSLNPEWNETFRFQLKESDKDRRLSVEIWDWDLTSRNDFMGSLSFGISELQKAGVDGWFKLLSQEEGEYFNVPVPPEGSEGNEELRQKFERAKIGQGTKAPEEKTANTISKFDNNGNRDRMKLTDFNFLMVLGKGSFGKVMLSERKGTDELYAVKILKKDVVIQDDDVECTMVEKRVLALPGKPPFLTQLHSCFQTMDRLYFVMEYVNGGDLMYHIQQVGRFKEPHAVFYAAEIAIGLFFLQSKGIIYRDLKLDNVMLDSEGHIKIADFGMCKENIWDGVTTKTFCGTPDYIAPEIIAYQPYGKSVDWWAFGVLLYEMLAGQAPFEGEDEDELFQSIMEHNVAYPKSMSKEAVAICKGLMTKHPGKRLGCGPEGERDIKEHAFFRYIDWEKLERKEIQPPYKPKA

NC(=O)c1cc2c3ccccc3ccn2c1-c1ccccc1 [NSC 93427]
inhibition of cellular fluorescence ([1]; 10 μM): nearly complete inhibition | IC50 ([1]; HeLa cells, PB-GABA-Taxol): < 1000 nM | fluorescent microtubule phenotype [2]: dose-dependent disruption of microtubules | cooperativity factor α [3]: 0.02 | Kb ([3]; read-out: cellular Kb (allosteric modulator)): 485 nM and 483 nM

CC(=O)O[C@H]1C(=O)[C@]2(C)[C@@H](OC(=O)CCCNC(=O)c3cc4cc(F)c(O)c(F)c4oc3=O)C[C@H]3OC[C@@]3(OC(C)=O)[C@H]2[C@H](OC(=O)c2ccccc2)[C@]2(O)C[C@H](OC(=O)[C@H](O)[C@@H](NC(=O)c3ccccc3)c3ccccc3)C(C)=C1C2(C)C [PB-GABA-Taxol]
reduction of apparent affinity by ligand depletion in 10% FBS ([4]; 10% FBS vs 4% or 1% FBS): 2 fold | Kd ([4]; HeLa cells, 4% FBS, 37° C., verapamil 100 μM, 3 h, read-out: cellular Kd of PB-GABA-Taxol for microtubules): 1700 ± 400 nM | half-time (t1/2) to equilibration of cellular fluorescence (HeLa cells [5]; 37° C., verapamil 100 μM): 0.55 h | half-time (t1/2) to equilibration of cellular fluorescence (HeLa cells [5]; room temperature (23° C.)): 1.45 h | Kd [6]: 265 nM | cells remaining viable (HeLa cells [7]; 37° C., verapamil 100 μM): > 90% | changes in viability (HeLa cells [7]; binding assay conditions, even with 100 μM paclitaxel): less than 10%

COc1cc2c(c(OC)c1OC)-c1ccc(OC)c(=O)cc1[C@@H](NC(C)=O)CC2 [colchicine]
IC50 at 48 h ([8]; with verapamil 25 µM, verapamil 25 μM): 13 ± 0.4 nM | IC50 at 48 h ([8]; without verapamil): 20 ± 8 nM

CCCCCCN(CCCCCCCCCCCCNC(=O)c1cc2ccc(O)cc2oc1=O)C(=O)O[C@@]12[C@H](O)[C@@H](C)[C@@]3(O)[C@@H](C=C(CO)C[C@]4(O)C(=O)C(C)=C[C@@H]34)[C@@H]1C2(C)C [probe 2, (1aR,1bS,4aR,7aS,7bS,8R,9R,9aS)-4a,7b,9-trihydroxy-3-(hydroxymethyl)-1,1,6,8-tetramethyl-5-oxo-1,1a,1b,4,4a,5,7a,7b,8,9-decahydro-9aH-cyclopropa[3,4]benzo[1,2-e]azulen-9a-yl hexyl(12-(7-hydroxy-2-oxo-2H-chromene-3-carboxamido)dodecyl)carbamate]
Cellular Kd for probe, PKCβI-mVenus (murine PKCβI-mVenus): prevented reliable measurements of cellular affinity | half-time (t1/2) of cellular uptake in transfected cells [9]: 0.233 h | translocation of PKCβI-mVenus (PKCβI-mVenus): translocated to cellular membranes

CCCCCCN(CCCCCCCCCCCCNC(=O)c1cc2ccc(N(CC)CC)cc2oc1=O)C(=O)O[C@@]12[C@H](O)[C@@H](C)[C@@]3(O)[C@@H](C=C(CO)C[C@]4(O)C(=O)C(C)=C[C@@H]34)[C@@H]1C2(C)C [probe 3, (1aR,1bS,4aR,7aS,7bS,8R,9R,9aS)-4a,7b,9-trihydroxy-3-(hydroxymethyl)-1,1,6,8-tetramethyl-5-oxo-1,1a,1b,4,4a,5,7a,7b,8,9-decahydro-9aH-cyclopropa[3,4]benzo[1,2-e]azulen-9a-yl (12-(7-(diethylamino)-2-oxo-2H-chromene-3-carboxamido)dodecyl)(hexyl)carbamate]
half-time (t1/2) of cellular uptake in transfected cells [9]: > 1.67 h | translocation of PKCβI-mVenus (PKCβI-mVenus): translocated to cellular membranes

diacylglycerol [DAG]
Kd ([10]; tyrosine at the 22 position): 780000 nM | Kd ([10]; tyrosine changed into tryptophan): 24000 nM
